Source: patent US6894049B1, “Platinum complexes as antitumor agents” (AnorMED, Inc., priority 2000, dated 2005)

Columns and labels:
41M = assay: Cell proliferation, human cancer cell line 41M; format: cell-based; conditions: read-out: concentration necessary to achieve a 50% decrease in cell proliferation
Experimental: (§1) The complexes of the invention were tested against human cancer cell lines grown in cell culture according to established testing procedures (described by Holford, et al., British J. Cancer 1998 77(3) 366-373). The results are given in concentrations (μM) necessary to achieve a 50% decrease in cell proliferation, with resistance factors in brackets for the cisplatin-resistant cell lines.

CH1R = assay: Cell proliferation, cisplatin-resistant human cancer cell line CH1R; format: cell-based; conditions: for resistance factor: CH1R/CH1, in brackets; for IC50: CH1R, read-out: concentration necessary to achieve a 50% decrease in cell proliferation
Experimental: as §1

A2780R = assay: Cell proliferation, cisplatin-resistant human cancer cell line A2780R; format: cell-based; conditions: for resistance factor: A2780R/A2780, in brackets; for IC50: A2780R, read-out: concentration necessary to achieve a 50% decrease in cell proliferation
Experimental: as §1

A2780 = assay: Cell proliferation, human cancer cell line A2780; format: cell-based; conditions: read-out: concentration necessary to achieve a 50% decrease in cell proliferation
Experimental: as §1

CH1 = assay: Cell proliferation, human cancer cell line CH1; format: cell-based; conditions: read-out: concentration necessary to achieve a 50% decrease in cell proliferation
Experimental: as §1

41MR = assay: Cell proliferation, cisplatin-resistant human cancer cell line 41MR; format: cell-based; conditions: for IC50: 41MR, read-out: concentration necessary to achieve a 50% decrease in cell proliferation; for resistance factor: 41MR/41M, in brackets
Experimental: as §1

[1] = Aqueous solubility at ambient conditions; format: physicochemical

SMILES	IC50 (41M)	resistance factor (CH1R)	IC50 (CH1R)	resistance factor (A2780R)	IC50 (A2780R)	IC50 (A2780)	IC50 (CH1)	IC50 (41MR)	Aqueous Solubility [1]	resistance factor (41MR)
Cc1cc(C)[n+]([Pt-2]([NH3+])([OH])([OH])([Cl])[Cl])[nH]1 [Example 11, (OC-6-43)amminedichlorodihydroxo-(3.5-dimethylpyrazole)platinum(IV)]	11 µM	2.5	5 µM	5.1	37 µM	7.2 µM	2 µM	8.2 µM		
CC(=O)[O][Pt]([NH2])([Cl])([Cl])([NH]C1CCCCC1)[O]C(C)=O [bis-acetato-ammine(cyclohexylamine)dichloroplatinum(IV), reference compound]	0.5 µM	4	0.4 µM	4.6	1.84 µM	0.4 µM		0.6 µM	<1 mg/mL	1.2
Cc1[nH]cc[n+]1[Pt-2]([NH3+])([Cl])[Cl] [Example 8]	21 µM	2.5	12.5 µM				5.2 µM	16.5 µM		0.8
Cc1n(C)cc[n+]1[Pt-2]([NH3+])([OH])([OH])([Cl])[Cl] [Example 15]	23 µM	1.4	16.5 µM	> 7.4	> 100 µM	13.5 µM	12 µM	21 µM		0.9
Cc1n(C)cc[n+]1[Pt-2]([NH3+])([Cl])[Cl] [Example 7]	9.3 µM	1.4	12 µM	2.5	17.5 µM	7.1 µM	8.3 µM	15 µM		1.6
CC(=O)[O][Pt-2]([NH3+])([Cl])([Cl])([O]C(C)=O)[n+]1ccnc(C)c1C [Example 14, (OC-6-43)-amminedichlorodiacetato-(2,3-dimethylpyrazine)platinum(IV)]	29 µM	3.2	30 µM				9.4 µM	36 µM		1.2
Cc1cc(C)[n+]([Pt-2]([NH3+])([Cl])[Cl])[nH]1 [Example 1, (SP-4-3)-amminedichloro(3.5-dimethylpyrazole)platinum(II)]	3.5 µM	1.9	3.8 µM	3.4	9.2 µM	2.7 µM	2.05 µM	4.5 µM		1.3
CCCC(=O)[O][Pt]([NH2])([Cl])([Cl])([NH]C1CCCCC1)[O]C(=O)CCC [bis-butyrato-ammine(cyclohexylamine)dichloroplatinum(IV), reference compound]	0.072 µM	3.7	0.024 µM				0.0066 µM	0.048 µM		0.67
Cc1c[n+]([Pt-2]([NH3+])([OH])([OH])([Cl])[Cl])c(C)[nH]1 [Example 16]	19 µM	2.1	21 µM	> 8	> 100 µM	12.5 µM	10 µM	28 µM		1.5
